Columns and labels:
[1] = test system: Human immunodeficiency virus 1; assay: Antiviral activity against HIV1 infected in human MT4 cells; format: functional, organism-based; conditions: Human immunodeficiency virus 1, MT4
MT4 = assay: Cytotoxicity against human MT4 cells after 5 days by XTT assay; format: cell-based; conditions: mt4, 120 h
Protease = Protease (Human immunodeficiency virus 1, UniProt Q9YQ12); assay: Inhibition of HIV1 protease expressed in Escherichia coli using DABCYL-Abu-Ser-Gln-ASN-Tyr-Pro-Ile-Val-Gln-EDANS as substrate preincubated for 20 mins measured for 45 mins by fluorometry
Sequence of Protease (Q9YQ12 whole entry): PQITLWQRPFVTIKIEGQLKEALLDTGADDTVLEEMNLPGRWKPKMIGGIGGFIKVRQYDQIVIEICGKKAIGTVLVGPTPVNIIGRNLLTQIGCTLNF

Caco-2 = assay: Apparent permeability from apical to basolateral side in human Caco2 cells after 60 mins; format: ADME, cell-based; conditions: caco-2, 1 h
Liver microsomes = assay: (§1) Intrinsic clearance in human liver microsomes at 1 uM after 30 mins by LC-MS/MS analysis; format: ADME, Microsome; conditions: microsomes, 0.5 h, 1 µM
[2] = as §1; format: ADME, Microsome; conditions: liver microsomes, read-out: CLH

| SMILES | EC50 [1] | CC50 (MT4) | Ki (Protease) | Papp (Caco-2) | CLH (Liver microsomes) | microsomal CLint at 1 µM [2] |
| --- | --- | --- | --- | --- | --- | --- |
| COC(=O)N[C@H](C(=O)NN(CCC[C@@]1(Cc2ccccc2)C(=O)N([C@H]2c3ccccc3C[C@H]2O)C[C@H]1O)Cc1ccc(-c2ccncc2)cc1)C(C)(C)C | 700 nM | 5900 nM |  |  |  |  |
| COC(=O)N[C@H](C(=O)NN(CC[C@@]1(Cc2ccccc2)C(=O)N([C@H]2c3ccccc3C[C@H]2O)C[C@@H]1O)Cc1ccc(Br)cc1)C(C)(C)C | 350 nM |  | 6.4 nM | 17 ×10⁻⁶ cm/s |  |  |
| COC(=O)N[C@H](C(=O)NN(CC[C@@]1(Cc2ccccc2)C(=O)N([C@H]2c3ccccc3C[C@H]2O)C[C@H]1O)Cc1ccc(-c2ccncc2)cc1)C(C)(C)C | 40 nM | > 50000 nM | 0.4 nM |  |  |  |
| COC(=O)N[C@H](C(=O)NN(CCC1(Cc2ccccc2)C(=O)N([C@H]2c3ccccc3C[C@H]2O)CC1O)Cc1ccc(-c2ccncc2)cc1)C(C)(C)C (stereo not given in full) |  |  | 0.8 nM |  |  |  |
| COC(=O)N[C@H](C(=O)NN(CC[C@@]1(Cc2ccccc2)C(=O)N([C@H]2c3ccccc3C[C@H]2O)C[C@@H]1O)Cc1ccc(-c2ccccn2)cc1)C(C)(C)C | 180 nM | > 50000 nM | 2 nM |  |  |  |
| COC(=O)N[C@H](C(=O)NN(CCC[C@@]1(Cc2ccccc2)C(=O)N([C@H]2c3ccccc3C[C@H]2O)C[C@H]1O)Cc1ccc(-c2cccnc2)cc1)C(C)(C)C | 1800 nM | 23000 nM | 5.3 nM | 4.4 ×10⁻⁶ cm/s | 122 µL/min/mg |  |
| COC(=O)N[C@H](C(=O)NN(CC[C@@]1(Cc2ccccc2)C(=O)N([C@H]2c3ccccc3C[C@H]2O[Si](C)(C)C(C)(C)C)C[C@H]1O[Si](C)(C)C(C)(C)C)Cc1ccc(Br)cc1)C(C)(C)C | > 10000 nM | > 50000 nM | 760 nM |  |  |  |
| COC(=O)N[C@H](C(=O)NN(CCC[C@@]1(Cc2ccccc2)C(=O)N([C@H]2c3ccccc3C[C@H]2O)C[C@H]1O)Cc1ccc(Br)cc1)C(C)(C)C | 3900 nM | 26000 nM | 13 nM | 22 ×10⁻⁶ cm/s | > 300 µL/min/mg |  |
| COC(=O)N[C@H](C(=O)NN(CC[C@@]1(Cc2ccccc2)C(=O)N([C@H]2c3ccccc3C[C@H]2O)C[C@@H]1O)Cc1ccc(-c2cccnc2)cc1)C(C)(C)C | 100 nM |  | 0.7 nM | 5.1 ×10⁻⁶ cm/s | 120 µL/min/mg |  |
| COC(=O)N[C@H](C(=O)NN(CC[C@]1(Cc2ccccc2)C(=O)N([C@H]2c3ccccc3C[C@H]2O)C[C@H]1O)Cc1ccc(Br)cc1)C(C)(C)C | > 10000 nM | 15000 nM | 1200 nM |  |  |  |
| COC(=O)N[C@H](C(=O)NN(CCC[C@@]1(Cc2ccccc2)C(=O)N([C@H]2c3ccccc3C[C@H]2O)C[C@H]1O)Cc1ccc(-c2ccccn2)cc1)C(C)(C)C | 2500 nM | 31000 nM | 6.3 nM | 3.4 ×10⁻⁶ cm/s | 130 µL/min/mg |  |
| COC(=O)N[C@H](C(=O)NN(CC[C@@]1(Cc2ccccc2)C(=O)N([C@H]2c3ccccc3C[C@H]2O)C[C@H]1O)Cc1ccc(-c2cccnc2)cc1)C(C)(C)C | 40 nM | > 50000 nM | 0.8 nM | 3.8 ×10⁻⁶ cm/s | 230 µL/min/mg |  |
| COC(=O)N[C@H](C(=O)NN(CCC[C@@]1(Cc2ccccc2)C(=O)N([C@H]2c3ccccc3C[C@H]2O)C[C@H]1O)Cc1ccc(-c2ccccc2)cc1)C(C)(C)C | 850 nM | 15000 nM | 12 nM |  |  |  |
| COC(=O)N[C@H](C(=O)NN(CC[C@@]1(Cc2ccccc2)C(=O)N([C@H]2c3ccccc3C[C@H]2O)C[C@H]1O)Cc1ccc(-c2ccccn2)cc1)C(C)(C)C | 190 nM | 28000 nM | 1.7 nM |  |  |  |
| COC(=O)N[C@H](C(=O)NN(CC[C@@]1(Cc2ccccc2)C(=O)N([C@H]2c3ccccc3C[C@H]2O)C[C@H]1O)Cc1ccc(Br)cc1)C(C)(C)C | 640 nM | > 50000 nM | 2.1 nM |  | > 300 µL/min/mg |  |
| COC(=O)N[C@H](C(=O)N[C@@H](Cc1ccccc1)[C@@H](O)CN(Cc1ccc(-c2ccccn2)cc1)NC(=O)[C@@H](NC(=O)OC)C(C)(C)C)C(C)(C)C [ATAZANAVIR] | 3.9 nM |  |  |  |  | 90 µL/min/mg |
| COC(=O)N[C@H](C(=O)NN(CC[C@@]1(Cc2ccccc2)C(=O)N([C@H]2c3ccccc3C[C@H]2O[Si](C)(C)C(C)(C)C)C[C@@H]1O[Si](C)(C)C(C)(C)C)Cc1ccc(Br)cc1)C(C)(C)C | > 10000 nM |  | 800 nM |  |  |  |
| COC(=O)N[C@H](C(=O)NN(CC[C@@]1(Cc2ccccc2)C(=O)N([C@H]2c3ccccc3C[C@H]2O)C[C@@H]1O)Cc1ccc(-c2ccncc2)cc1)C(C)(C)C | 96 nM |  | 1.7 nM |  |  |  |
| COC(=O)N[C@H](C(=O)NN(CC[C@]1(Cc2ccccc2)C(=O)N([C@H]2c3ccccc3C[C@H]2O)C[C@@H]1O)Cc1ccc(Br)cc1)C(C)(C)C | > 10000 nM |  | 940 nM |  |  |  |

Reference: ChEMBL document CHEMBL2029335, “Synthesis, X-ray analysis, and biological evaluation of a new class of stereopure lactam-based HIV-1 protease inhibitors” (J Med Chem, 2012)
